Source: patent US20100298141A1, “SUBSTITUTED PYRIDINE N-OXIDE HERBICIDES” (E. I. DU PONT DE NEMOURS AND COMPANY, priority 2007, published 2010)

How the values were obtained:
duck salad = test: Test C flooded paddy test; assay type: in vivo, Heteranthera limosa; conditions: Flood
Outline: (§1)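 Test compounds are applied straight into paddy water held 3 cm above the soil surface, with that flood maintained for the whole test. After 13 to 15 days in the greenhouse, each species is scored visually relative to controls.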

morningglory = test: Test A pre-/postemergence greenhouse test; assay type: in vivo, Ipomoea spp.; conditions: for Plant response rating, Morningglory: 0 to 100 scale where 0 is no effect and 100 is complete control; for Morningglory plant response rating: 0 to 100 scale
Outline: (§2)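 Pots of loam–sand soil sown with the test species are sprayed preemergence on the soil surface; emerged seedlings (1–2 leaves, 2–10 cm) are sprayed postemergence at the same time. The vehicle is a non-phytotoxic solvent mixture with surfactant. Injury is scored visually after ~10 d in greenhouse.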

barnyardgrass [1] = test: Test C flooded paddy test; assay type: in vivo, Echinochloa crus-galli; conditions: Flood
Outline: as §1

umbrella sedge = test: Test C flooded paddy test; assay type: in vivo, Cyperus difformis; conditions: Flood
Outline: as §1

wheat = test: Test A pre-/postemergence greenhouse test; assay type: in vivo, Triticum aestivum; conditions: for Plant response rating, Wheat: 0 to 100 scale where 0 is no effect and 100 is complete control; for Wheat plant response rating: 0 to 100 scale
Outline: as §2

velvetleaf = test: Test A pre-/postemergence greenhouse test; assay type: in vivo, Abutilon theophrasti; conditions: for Plant response rating, Velvetleaf: 0 to 100 scale where 0 is no effect and 100 is complete control; for Velvetleaf plant response rating: 0 to 100 scale
Outline: as §2

redroot pigweed = test: Test A pre-/postemergence greenhouse test; assay type: in vivo, Amaranthus retroflexus; conditions: for Plant response rating, Pigweed: 0 to 100 scale where 0 is no effect and 100 is complete control; for Pigweed plant response rating: 0 to 100 scale
Outline: as §2

crabgrass = test: Test A pre-/postemergence greenhouse test; assay type: in vivo, Digitaria sanguinalis; conditions: for Plant response rating, Crabgrass, Large: 0 to 100 scale where 0 is no effect and 100 is complete control; for Crabgrass, Large plant response rating: 0 to 100 scale
Outline: as §2

rice = test: Test C flooded paddy test; assay type: in vivo, Oryza sativa; conditions: Flood
Outline: as §1

corn = test: Test A pre-/postemergence greenhouse test; assay type: in vivo, Zea mays; conditions: for Plant response rating, Corn: 0 to 100 scale where 0 is no effect and 100 is complete control; for Corn plant response rating: 0 to 100 scale
Outline: as §2

barnyardgrass [2] = test: Test A pre-/postemergence greenhouse test; assay type: in vivo, Echinochloa crus-galli; conditions: for Plant response rating, Barnyardgrass: 0 to 100 scale where 0 is no effect and 100 is complete control; for Barnyardgrass plant response rating: 0 to 100 scale
Outline: as §2

giant foxtail = test: Test A pre-/postemergence greenhouse test; assay type: in vivo, Setaria faberi; conditions: for Plant response rating, Foxtail, Giant: 0 to 100 scale where 0 is no effect and 100 is complete control; for Foxtail, Giant plant response rating: 0 to 100 scale
Outline: as §2

[3] = 62 g ai/ha, scale 0 to 100 (0 no effect, 100 complete control)
[4] = 250 g ai/ha, scale 0 to 100, 0 no effect, 100 complete control, 13 to 15 days
[5] = Postemergence, 500 g ai/ha, 0 is no effect, 100 is complete control
[6] = Preemergence, 125 g ai/ha, 0 no effect, 100 complete control
[7] = 62 g ai/ha, scale 0 to 100, 0 no effect, 100 complete control, 13 to 15 days

Row | SMILES | Plant response rating, Ducksalad (duck salad; [4]) | Plant response rating, Morningglory (morningglory; Postemergence, 125 g ai/ha) | Morningglory plant response rating (morningglory; [5]) | Morningglory plant response rating (morningglory; [6]) | Plant response rating, Morningglory (morningglory; Preemergence, 500 g ai/ha) | Plant response rating, Barnyardgrass (barnyardgrass [1]; [4]) | Plant response rating, Sedge, Umbrella (umbrella sedge; [4]) | Plant response rating, Wheat (wheat; Postemergence, 125 g ai/ha) | Wheat plant response rating (wheat; [5]) | Wheat plant response rating (wheat; [6]) | Plant response rating, Wheat (wheat; Preemergence, 500 g ai/ha) | Plant response rating, Velvetleaf (velvetleaf; Postemergence, 125 g ai/ha) | Velvetleaf plant response rating (velvetleaf; [5]) | Velvetleaf plant response rating (velvetleaf; [6]) | Plant response rating, Velvetleaf (velvetleaf; Preemergence, 500 g ai/ha) | Plant response rating, Pigweed (redroot pigweed; Postemergence, 125 g ai/ha) | Pigweed plant response rating (redroot pigweed; [5]) | Pigweed plant response rating (redroot pigweed; [6]) | Plant response rating, Pigweed (redroot pigweed; Preemergence, 500 g ai/ha) | Plant response rating, Crabgrass, Large (crabgrass; Postemergence, 125 g ai/ha) | further results
1 | Cn1nc(C(F)(F)F)c(CS(=O)(=O)c2cccc[n+]2[O-])c1OCC(F)(F)C(F)(F)F [Compound 83] | 0 | 10 | 30 | 0 | 70 | 0 | 0 | 0 | 10 | 10 | 60 | 0 | 40 | 0 | 60 | 10 | 20 | 10 | 100 | 30 | Plant response rating, Ducksalad (duck salad; [3]): 0; Plant response rating, Barnyardgrass (barnyardgrass [1]; [3]): 0; Plant response rating, Sedge, Umbrella (umbrella sedge; [3]): 0; Crabgrass, Large plant response rating (crabgrass; [5]): 80; Crabgrass, Large plant response rating (crabgrass; [6]): 50; Plant response rating, Crabgrass, Large (crabgrass; Preemergence, 500 g ai/ha): 80; Plant response rating, Rice (rice; [3]): 20; Plant response rating, Rice (rice; [4]): 20; Plant response rating, Corn (corn; Postemergence, 125 g ai/ha): 0; Corn plant response rating (corn; [5]): 0; Corn plant response rating (corn; [6]): 0; Plant response rating, Corn (corn; Preemergence, 500 g ai/ha): 40; Plant response rating, Barnyardgrass (barnyardgrass [2]; Postemergence, 125 g ai/ha): 50; Barnyardgrass plant response rating (barnyardgrass [2]; [5]): 70; Barnyardgrass plant response rating (barnyardgrass [2]; [6]): 80; Plant response rating, Barnyardgrass (barnyardgrass [2]; Preemergence, 500 g ai/ha): 100; Plant response rating, Foxtail, Giant (giant foxtail; Postemergence, 125 g ai/ha): 70; Foxtail, Giant plant response rating (giant foxtail; [5]): 80; Foxtail, Giant plant response rating (giant foxtail; [6]): 80; Plant response rating, Foxtail, Giant (giant foxtail; Preemergence, 500 g ai/ha): 100
2 | Cc1cc[n+]([O-])c([S+]([O-])Cc2c(C(F)(F)F)nn(CC(F)(F)F)c2Cl)c1 (stereo not shown) [Compound 48] | 25 | 30 | 50 | 40 | 80 | 0 | 50 | 0 | 50 | 20 | 80 | 0 | 40 | 0 | 60 | 50 | 60 | 70 | 100 | 50 | Plant response rating, Ducksalad (duck salad; [7]): 0; Plant response rating, Barnyardgrass (barnyardgrass [1]; [7]): 0; Crabgrass, Large plant response rating (crabgrass; [5]): 70; Crabgrass, Large plant response rating (crabgrass; [6]): 70; Plant response rating, Crabgrass, Large (crabgrass; Preemergence, 500 g ai/ha): 90; Plant response rating, Rice (rice; [7]): 0; Plant response rating, Rice (rice; [4]): 25; Plant response rating, Corn (corn; Postemergence, 125 g ai/ha): 0; Corn plant response rating (corn; [5]): 50; Corn plant response rating (corn; [6]): 0; Plant response rating, Corn (corn; Preemergence, 500 g ai/ha): 60; Plant response rating, Barnyardgrass (barnyardgrass [2]; Postemergence, 125 g ai/ha): 40; Barnyardgrass plant response rating (barnyardgrass [2]; [5]): 70; Barnyardgrass plant response rating (barnyardgrass [2]; [6]): 50; Plant response rating, Barnyardgrass (barnyardgrass [2]; Preemergence, 500 g ai/ha): 90; Plant response rating, Foxtail, Giant (giant foxtail; Postemergence, 125 g ai/ha): 70; Foxtail, Giant plant response rating (giant foxtail; [5]): 80; Foxtail, Giant plant response rating (giant foxtail; [6]): 80; Plant response rating, Foxtail, Giant (giant foxtail; Preemergence, 500 g ai/ha): 90
